# Data: publication PMC10778824, “New Chalcone Derivatives Containing 2,4-Dichlorobenzenesulfonamide Moiety with Anticancer and Antioxidant Properties” (International Journal of Molecular Sciences, 2023)
# Legend:
# AGS cells [1] = test: MitoPotential assay (mitochondrial membrane depolarization); type: cell-based, human; settings: 10 µg/mL, 5 h
# Protocol: The AGS cells were seeded in a 12-well plate (1 × 10^5 cells/well) and incubated with compound 5 at concentrations of 1, 5, and 10 µg/mL; oxaliplatin at the concentration of 40 µg/mL; and DMSO (0.2%, v/v). After 5 h of exposure, the cells were stained with the Muse MitoPotential Assay Kit (Merck Millipore, Burlington, MA, USA) and analyzed with the Muse Cell Analyzer (Merck Millipore, Burlington, MA, USA). The percentage of depolarized live and dead cells was estimated in the experiments, which were independently repeated three times.
# [2] = DPPH radical scavenging assay; settings: concentration of 800 µg/mL
# Protocol: The DPPH radical scavenging assay of samples (ligands or complexes) was performed with ascorbic acid as a standard. Different concentrations of chalcone derivatives, dissolved in DMSO, were mixed with the same amount of 0.06 mM DPPH methanolic solution and incubated at room temperature in the dark for 30 min. The absorbance was analyzed at λ = 517 nm using a 96-well microplate reader (Epoch, BioTek System, Winooski, VT, USA). The control was composed of DPPH and DMSO. DPPH inhibition was calculated according to the following Formula (2):DPPH Inhibition (%) = [(Acontrol − Asample)/Acontrol] × 100%(2)
# AGS cells [3] = test: Microscopic observation of AGS cells; type: cell-based, human; settings: microscopy, 200×; compound 5 at 1, 5, 10 µg/mL; oxaliplatin 20 and 40 µg/mL
# Protocol: These changes were clearly visible when higher concentrations of the compound were used in the study.
# Figure 2 The effect of chalcone derivative 5 on AGS cells. The cells were treated with DMSO (0.2%, v/v) (A) and the compound at concentrations of 1 (B), 5 (C), and 10 (D) µg/mL and oxaliplatin at 20 (E) and 40 (F) µg/mL. The images were taken at 200× magnification.
# [4] = system: human neonatal fibroblasts; test: MTT assay, noncancerous fibroblasts; type: cell-based; settings: Homo sapiens, Fibroblast, 24 h treatment
# Protocol: (§1) The human gastric adenocarcinoma AGS, cervical cancer HeLa, and acute promyelocytic leukemia HL-60 cells were obtained from the American Type Culture Collection (ATCC, Manassas, VA, USA). Human neonatal fibroblasts were obtained from LGC Standards (Luckenwalde, Germany). The HeLa and AGS lines were cultured in Dulbecco’s modified Eagle’s medium (DMEM) and DMEM/F12 medium, respectively. The HL-60 line was maintained in RPMI-1640 medium. Fibroblasts were cultured in Fibroblast Growth Medium with Supplement Mix. All the media were supplemented with 100 units/mL of penicillin, 100 µg/mL of streptomycin, and 10% (v/v) fetal bovine serum (FBS) (Merck Millipore, Burlington, MA, USA). The cells were incubated at 37 °C and 5% CO2.
# (§2) To estimate the cytotoxic effect of the five compounds (4–8), MTT (3-(4,5-dimethylthiazol-2-yl)-2,5-diphenyltetrazolium bromide) assay was used. Oxaliplatin was used as a positive control in this test. All the cell lines were seeded in 96-well plates at a density of 5 × 10^3 cells/well and treated for 24 h with the compounds at concentrations of 0.5–40 µg/mL. Oxaliplatin was tested in the range of 20–400 µg/mL (50–1000 µM). After treatment, the cells were incubated with MTT (0.5 mg/mL; Merck Millipore, Burlington, MA, USA) for 3 h. Then, DMSO was used to dissolve formazan crystals, and the absorbance of the formazan solution was measured with a plate reader (Epoch, BioTek Instruments, Santa Clara, CA, USA). All the results (±standard deviation (SD)) were obtained from six repetitions in at least two independent experiments. The data are expressed as IC50 values (µg/mL).
# [5] = system: Helicobacter pylori ATCC43504; test: MIC determination; type: cell-based; settings: 37 °C, 48 h
# How it was run: (§3)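 Broth microdilution with […] dilutions of samples dissolved in DMSO and diluted with water; final concentrations spanned 500 to 0.006 µg/mL. Campylobacter strains followed the H. pylori procedure, L. monocytogenes the B. subtilis procedure. Plates incubated at 37 °C for 48 h; triplicate.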
# [6] = system: Enterococcus faecalis ATCC51299; test: MIC determination; type: cell-based; settings: 37 °C, 48 h
# How it was run: as §3
# [7] = system: Listeria monocytogenes PCM2191; test: MIC determination; type: cell-based; settings: 37 °C, 48 h
# How it was run: as §3
# [8] = system: Bacillus cereus PCM 1948,2019 (ATCC11778); test: MIC determination; type: cell-based; settings: 37 °C, 48 h
# How it was run: as §3
# Campylobacter coli ZMF = test: MIC determination; type: cell-based; settings: 37 °C, 48 h
# How it was run: as §3
# [9] = system: Staphylococcus aureus ATCC6538; test: MIC determination; type: cell-based; settings: 37 °C, 48 h
# How it was run: as §3
# [10] = system: Klebsiella pneumoniae ATCC13883; test: MIC determination; type: cell-based; settings: 37 °C, 48 h
# How it was run: as §3
# caspase-9 = test: Caspase-Glo 9 activity assay in AGS cells; type: cell-based, human; settings: 24 h, relative to DMSO control
# Protocol: The AGS cells were seeded in a 96-well plate (5 × 10^3 cells/well) and treated with compound 5 at concentrations of 1, 5, 7, and 10 µg/mL for 24 h; oxaliplatin at the concentration of 20 µg/mL; and DMSO (1%, v/v). The cells were then treated with reagents from Caspase-Glo 8 Assay or Caspase-Glo 9 Assay (Promega, Madison, WI, USA) and measured with the luminometer Glomax Multi + Detection System (Promega, Madison, WI, USA). The experiments were performed in two independent repeats in three repetitions.
# [11] = system: acute promyelocytic leukemia HL-60; test: MTT assay, HL-60 cells; type: cell-based, human
# Protocol: as §1, §2
structure (smiles),measurement,setting,value
"Cc1cc(S(=O)(=O)Nc2ccc(C(=O)/C=C/c3ccc(Br)cc3)cc2)c(Cl)cc1Cl [Compound 5, (E)-N-{4-[3-(4-Bromophenyl)acryloyl]phenyl}-2,4-Dichloro-5-Methylbenzenesulfonamide]",depolarized/dead cells,AGS cells [1],32.71% ± 3.50%
same,depolarized/live cells,AGS cells [1],34.20% ± 2.57%
same,% of DPPH radical inhibition,[2],30.18 ± 0.23%
same,morphological changes of AGS cells,AGS cells [3],"cell shrinkage, membrane blebbing, and cell detachment"
same,IC50,[4],25.6 ± 1.04 µg/mL
same,MIC,[5],> 500 µg/mL
same,MIC,[6],> 500 µg/mL
same,MIC,[7],> 500 µg/mL
same,MIC,[8],> 500 µg/mL
same,MIC,Campylobacter coli ZMF,> 500 µg/mL
same,MIC,[9],> 500 µg/mL
same,MIC,[10],> 500 µg/mL
same,caspase-9 relative activity,caspase-9; 1 µg/mL,0.85 ± 0.03
same,caspase-9 relative activity,caspase-9; 5 µg/mL,4.54 ± 0.20
same,caspase-9 relative activity,caspase-9; 7 µg/mL,4.50 ± 0.14
same,caspase-9 relative activity,caspase-9; 10 µg/mL,3.81 ± 0.32
same,IC50,"[11]; Homo sapiens, HL-60, 24 h, MTT, 24 h treatment",< 1.57 µg/mL
same,IC50 HL-60,"[11]; MTT, 24 h treatment",0.93 ± 0.09 µg/mL
same,selectivity index HL-60,"[11]; SI = IC50 noncancer cells/IC50 cancer cells, in relation to human neonatal fibroblasts",27.52
